Reference: US11337424B2, “Fungicidal compounds and mixtures for fungal control in cereals” (Corteva Agriscience LLC, priority 2016, dated 2022)

Legend:
Format in all cases: in vivo
[1] = test system: Puccinia recondita (PUCCRT); assay: Field assessment of brown rust of wheat (PUCCRT), 2 field trials, relative AUDPC; conditions: % control based on AUDPC, average of 2 trials
From the text: (§1) Treatments consisted of the compound of Formula I and fenpicoxamid either using individually or as a two-way mixture with the compound of Formula I. The compound of Formula I was applied with Agnique BP-420 (50% w/w at 0.3% v/v) at 75 and 150 g ai/ha and fenpicoxamid was applied with Agnique BP-420 (50% w/w at 0.3% v/v) at 75 and 100 g ai/ha. Commercial standards used in the studies were Fluxapyroxad (Imtrex), applied at 100 g ai/ha, and Metconazole+Fluxapyroxad (Librax), applied at 161 g ai/ha.
Field Assessment of Puccinia recondita (PUCCRT) in Wheat:
Fungicidal treatment containing the compound of Formula I and fenpicoxamid, either individually or as a two mixture, were assessed against brown rust of wheat (PUCCRT) in two separate field trials. In the first trial, fungicidal treatments were applied at B37-39 (protectant, approximately 0% infection at application) growth stage of wheat (TRZAW, MV Vanek variety) under natural infection of brown rust. The treatment was part of an experimental trial designed as a randomized complete block with four replications and a plot of approximately 2×3 m. Fungicidal treatments were applied at a water volume of 200 L/ha, using a backpack plot sprayer with a TEEJET QJ90-2XTT110 015 Nozzle.
In the second trial, fungicidal treatments containing the compound of Formula I and fenpicoxamid, either individually or as a two way mixture, were applied at B33 (curative, approximately 6.6% infection at application) growth stage of wheat (TRZAW, Miradoux variety) under natural infection of brown rust. The treatments were part of an experimental trial designed as a randomized complete block with four replications and a plot of approximately 2×3 m. Fungicidal treatments were applied at a water volume of 200 L/ha, using a backpack plot sprayer with a HARDI MD110-02 Nozzle.
(§2) Disease severity (percentage of visual diseased foliage on whole plot or leaves) in both field trials was assessed at 5 weeks after application and was recorded following EPPO PP1/26 guideline prescriptions. Area under the disease progress curve (AUDPC) was calculated for each plot in both trials using the sets of recorded severity data. Relative AUDPC (% control based on AUDPC) was calculated as percent of the nontreated control. Final results for the control of brown rust of wheat by the compound of Formula I, fenpicoxamid, and mixtures are reported as an average of the relative AUDPC calculated over both field trials. Statistical analysis was done according to ANOVA and Tukey's test (p=0.10).

[2] = test system: Puccinia striiformis (PUCCST); assay: Field assessment of yellow rust of wheat (PUCCST), 2 field trials, relative AUDPC; conditions: % control based on AUDPC, average of 2 trials
From the text: as §1
Field Assessment of Puccinia striiformis (PUCCST) in Wheat:
Fungicidal treatments containing the compound of Formula I and fenpicoxamid, either individually or as a two way mixture, were assessed against yellow rust of wheat (PUCCST) in two separate field trials. In the first trial, fungicidal treatments were applied twice at B31-32 (early curative, 4% infection at application on L3) and B39 (16.3% infection at application on L3) growth stages of winter wheat (TRZAW, Fairplay variety) under naturally occurring infection with PUCCST. The treatments were part of an experimental trial designed as a randomized complete block with four replications and a plot of approximately 1×6 m. Treatments were applied at water volume of 200 L/ha, using a backpack plot sprayer (BKPCKENG, F110-015 Hardi (3) Flat fan nozzle) and pressurized at 200 kPa.
In the second trial, fungicidal treatments containing the compound of Formula I and fenpicoxamid, either individually or as a two way mixture, were applied twice at B32 (protectant, 0% infection on L3 at application) and B37 (early curative, 20% infection on L3 at application) growth stages of wheat (TRZAW, Torch variety) under naturally occurring infection with PUCCST. The treatment was part of an experimental trial designed as a randomized complete block with four replications and a plot of approximately 2×4 m. Treatments were applied at water volume of 200 L/ha, using a backpack precision plot sprayer (BKCKAIR, F110-03 Hypro (4) Flat fan nozzle) and pressurized at 210 kPa.
as §2, with “4-7” for “5”, “yellow” for “brown”

[3] = test system: Zymoseptoria tritici (SEPTTR); assay: Field assessment of leaf blotch of wheat (SEPTTR), 3 field trials, relative AUDPC; conditions: % control based on AUDPC, average of 3 trials
From the text: as §1
Field Assessment of Zymoseptoria Tritici (SEPTTR) in Wheat:
Fungicidal treatments containing the compound of Formula I and fenpicoxamid, either individually or as a two way mixture, were assessed against leaf spot of wheat (SEPTTR) in three separate field trials. In the first trial, fungicidal treatments were applied at B37 (curative, 1.8% infection at application on L4) growth stage of winter wheat (TRZAW, Sy moisson variety) under naturally occurring infection with SEPTTR. The treatments were part of an experimental trial designed as a randomized complete block with four replications and a plot of approximately 2×4 m. Treatments were applied at water volume of 200 L/ha, using a backpack plot sprayer (BKPCKAIR, FLAT FAN nozzle) and pressurized at 250 kPa.
In the second trial, fungicidal treatments were applied twice at B32 (curative, 15% infection at application on L5) and B39 (16% infection at application on L4) growth stages of winter wheat (TRZAW, Riband variety) under naturally occurring infection with SEPTTR. The treatments were part of an experimental trial designed as a randomized complete block with four replications and a plot of approximately 1.5×2 m. Treatments were applied at water volume of 200 L/ha, using a backpack plot sprayer (BKPCKAIR, Flat fan nozzle) and pressurized at 180 kPa.
In the final trial, fungicidal treatments were applied twice at B32 (protective, 15% infection at application on L6) and B37 (12% infection at application on L5) growth stages of winter wheat (TRZAW, Smaragd variety) under naturally occurring infection with SEPTTR. […]
as §2, with “at 7-9” for “at 5”, “of leaf spot” for “of brown rust”, “over all three” for “over both”, “trials. […]” for “trials. Statistical analysis was done according to ANOVA and Tukey's test (p=0.10).”

SMILES	PUCCRT % Control ([1]; 75 g ai/ha) [%]	PUCCRT % Control ([1]; 100 g ai/ha) [%]	PUCCST % Control ([2]; 75 g ai/ha) [%]	PUCCST % Control ([2]; 100 g ai/ha) [%]	SEPTTR % Control ([3]; 50 g ai/ha) [%]	SEPTTR % Control ([3]; 75 g ai/ha) [%]	PUCCRT % Control ([1]; 150 g ai/ha) [%]	PUCCST % Control ([2]; 150 g ai/ha) [%]	SEPTTR % Control ([3]; 150 g ai/ha) [%]
COc1ccnc(C(=O)N[C@H]2COC(=O)[C@H](Cc3ccccc3)[C@@H](OC(=O)C(C)C)[C@H](C)OC2=O)c1OCOC(=O)C(C)C [Fenpicoxamid, (3S,6S,7R,8R)-8-benzyl-3-(3-((isobutyryloxy)methoxy)-4-methoxypicolinamido)-6-methyl-4,9-dioxo-1,5-dioxonan-7-yl isobutyrate]	63.5	74.5	56.5	60.5	48.7	57.7	–	–	–
N#Cc1ccc(Oc2ccc(C(F)(F)C(O)(Cn3nc[nH]c3=S)c3ccc(F)cc3F)nc2)cc1 (stereo not drawn) [Compound I, 4-((6-(2-(2,4-difluorophenyl)-1,1-difluoro-2-hydroxy-3-(5-thioxo-4,5-dihydro-1H-1,2,4-triazol-1-yl)propyl)pyridin-3-yl)oxy)benzonitrile]	79.7	–	82.7	–	–	48.2	89.0	85.5	65.8
